Here are results for 13 compounds from ChEMBL document CHEMBL3994587, “An insight on synthetic and medicinal aspects of pyrazolo[1,5-a]pyrimidine scaffold” (Eur J Med Chem, 2017).

For one assay, the system named is Pseudomonas aeruginosa. The experiment in a line: Antibacterial activity against Pseudomonas aeruginosa RCMB 000103 assessed as zone of inhibition at 30 ug/ml. The class given is functional. The settings on record: read-out: IZ.
Assay [1] deals with Syncephalastrum racemosum. The experiment in a line: Antifungal activity against Syncephalastrum racemosum 005004 assessed as zone of inhibition at 30 ug/ml. It is filed as functional. The note with it: read-out: IZ.
The test system of another assay is Geotrichum candidum. As to the kind of experiment: Antifungal activity against Geotrichum candidum 052008 assessed as zone of inhibition at 30 ug/ml. The class given is functional. The settings on record: read-out: IZ.
In a further assay the test system is Staphylococcus aureus. The experiment in a line: Antibacterial activity against Staphylococcus aureus RCMB 000108 assessed as zone of inhibition at 30 ug/ml. The class given is functional. The settings on record: read-out: IZ.
The subject of the next assay is Escherichia coli. As to the kind of experiment: Antibacterial activity against Escherichia coli RCMB 000106 assessed as zone of inhibition at 30 ug/ml. It is filed as functional. The note with it: read-out: IZ.
For another assay, the system named is Aspergillus fumigatus. The experiment in a line: Antifungal activity against Aspergillus fumigatus RCMB 002006 assessed as zone of inhibition at 30 ug/ml. The class given is functional. The note with it: read-out: IZ.
The subject of another assay is Bacillus subtilis. As to the kind of experiment: Antibacterial activity against Bacillus subtilis RCMB 000109 assessed as zone of inhibition at 30 ug/ml. The class given is functional. The note with it: read-out: IZ.
For a further assay, the system named is Candida albicans. As to the kind of experiment: Antifungal activity against Candida albicans RCMB 0005003 assessed as zone of inhibition at 30 ug/ml. The class given is functional. The settings on record: read-out: IZ.
Assay [2] has as its target Estrogen receptor beta (Homo sapiens) (UniProt Q92731). The experiment in a line: Displacement of [3H]E2 from ERbeta (unknown origin) by radiometric assay relative to estradiol. In general terms: Displacement assays read how much labelled ligand stays bound in the presence of the test substance.
Assay [3] deals with T1, Estrogen receptor (Homo sapiens) (UniProt P03372).
T1 sequence (whole entry): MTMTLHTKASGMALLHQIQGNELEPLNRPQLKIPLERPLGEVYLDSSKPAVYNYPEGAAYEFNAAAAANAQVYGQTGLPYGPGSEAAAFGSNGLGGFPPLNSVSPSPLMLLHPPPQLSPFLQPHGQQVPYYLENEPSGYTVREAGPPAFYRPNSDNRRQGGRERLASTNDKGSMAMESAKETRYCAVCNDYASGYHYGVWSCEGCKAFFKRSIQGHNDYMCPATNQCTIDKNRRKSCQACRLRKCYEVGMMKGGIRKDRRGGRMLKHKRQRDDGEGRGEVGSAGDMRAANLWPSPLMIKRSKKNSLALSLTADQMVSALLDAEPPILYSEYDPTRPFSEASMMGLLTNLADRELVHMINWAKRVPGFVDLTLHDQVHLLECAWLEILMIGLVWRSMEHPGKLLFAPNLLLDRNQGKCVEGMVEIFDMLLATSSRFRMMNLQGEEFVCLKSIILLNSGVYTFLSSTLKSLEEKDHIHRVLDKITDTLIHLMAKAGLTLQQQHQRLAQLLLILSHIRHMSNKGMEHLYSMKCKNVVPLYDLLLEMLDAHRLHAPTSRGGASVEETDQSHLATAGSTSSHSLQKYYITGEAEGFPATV
The experiment in a line: Displacement of [3H]E2 from ERalpha (unknown origin) by radiometric assay relative to estradiol.

Assay [4] is filed under the species Oryctolagus cuniculus. As to the kind of experiment: Potency index, ratio of theophylline IC50 to compound IC50 for inhibition of PDE in rabbit lung homogenates using [8-3H]cAMP as substrate measured 3 times between 3 to 12 mins. The class given is tissue-based.
For assay [5], the species on record is Sus scrofa. The experiment in a line: Inhibition of PDE in pig blood assessed as suppression of ADP-induced platelet aggregation at 50 ug/ml by turbidimetric method relative to control.
The species named for assay [6] is Oryctolagus cuniculus. The experiment in a line: Potency index, ratio of theophylline IC50 to compound IC50 for inhibition of PDE in rabbit kidney homogenates using [8-3H]cAMP as substrate measured 3 times between 3 to 12 mins. It is filed as tissue-based.
Assay [7] relates to Trypanosoma cruzi. As to the kind of experiment: Antitrypanosomal activity against bloodstream forms of Trypanosoma cruzi brazilian infected in C3H/He mouse assessed as increase in mean survival time at 100 mg/kg administered twice daily for 5 days via oral gavage starting from 3 days post infection. The class given is functional.
Assay [8] deals with Trypanosoma cruzi. The experiment in a line: Antitrypanosomal activity against Trypanosoma cruzi by serial dilution method. The class given is functional.
The next assay has as its system Ehrlich. The experiment in a line: Cytotoxicity against mouse EAC cells assessed as cell growth inhibition measured after 2 hrs by trypan blue exclusion assay. It is filed as functional, cell-based.
Assay [9] has as its target T2, Corticotropin-releasing factor receptor 1 (Homo sapiens, UniProt P34998).
T2 sequence (P34998 whole entry): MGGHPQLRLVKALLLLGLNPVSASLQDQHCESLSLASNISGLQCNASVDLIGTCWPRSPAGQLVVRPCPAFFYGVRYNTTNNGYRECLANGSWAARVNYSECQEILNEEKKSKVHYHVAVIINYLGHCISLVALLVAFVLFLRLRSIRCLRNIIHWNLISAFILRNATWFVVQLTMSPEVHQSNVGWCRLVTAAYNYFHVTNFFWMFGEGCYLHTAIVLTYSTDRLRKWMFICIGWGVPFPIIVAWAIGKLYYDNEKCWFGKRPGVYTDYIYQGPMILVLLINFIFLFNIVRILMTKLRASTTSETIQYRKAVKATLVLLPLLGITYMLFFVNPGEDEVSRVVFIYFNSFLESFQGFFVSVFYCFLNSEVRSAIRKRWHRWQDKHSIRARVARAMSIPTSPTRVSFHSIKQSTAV
The experiment in a line: Displacement of [125I-Tyr0]-CRF from recombinant human CRF1 receptor.

Assay [10] can be described thus: Displacement of [3H]RO15-1788 from benzodiazepine receptor in bovine brain membranes. It is filed as cell membranes, Bos taurus, Membrane.
The species entered for assay [11] is Bos taurus. The experiment in a line: Ratio of IC50 for displacement of [3H]RO15-1788 from benzodiazepine receptor in bovine brain membranes in absence of GABA to IC50 for displacement of [3H]RO15-1788 from benzodiazepine receptor in bovine brain membranes in presence of GABA. The class given is cell membranes.
The species named for assay [12] is Bos taurus. The experiment in a line: Displacement of [3H]RO15-1788 from benzodiazepine receptor in bovine brain membranes at 10 uM relative to control. The class given is cell membranes. The settings on record: Membrane.
The target of assay [13] is Gamma-aminobutyric acid receptor subunit alpha-2 (Rattus norvegicus, UniProt P23576). The experiment in a line: Displacement of [3H]RO15-1788 from recombinant rat GABAalpha2 receptor expressed in HEK293 cells after 1 hr. It is filed as cell-based.
Gamma-aminobutyric acid receptor subunit alpha-2, sequence (P23576 whole entry): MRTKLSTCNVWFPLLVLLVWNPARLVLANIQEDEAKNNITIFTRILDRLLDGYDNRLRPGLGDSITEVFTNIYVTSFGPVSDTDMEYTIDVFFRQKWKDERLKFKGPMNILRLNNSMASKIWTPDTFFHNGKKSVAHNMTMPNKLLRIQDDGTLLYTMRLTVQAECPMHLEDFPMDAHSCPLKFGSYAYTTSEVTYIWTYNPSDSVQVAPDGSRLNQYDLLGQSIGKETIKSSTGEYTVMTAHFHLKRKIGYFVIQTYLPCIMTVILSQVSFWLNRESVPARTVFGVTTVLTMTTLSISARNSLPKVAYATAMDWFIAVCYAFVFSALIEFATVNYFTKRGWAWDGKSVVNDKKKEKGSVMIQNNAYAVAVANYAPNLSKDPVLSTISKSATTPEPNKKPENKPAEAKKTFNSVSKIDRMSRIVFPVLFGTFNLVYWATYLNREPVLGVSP
Assay [14] in a line: Displacement of [3H]RO15-1788 from benzodiazepine receptor in recombinant bovine brain membranes expressed in HEK293 cells after 1 hr. It is filed as cell-based, Bos taurus, Membrane.
For assay [15], the species on record is Bos taurus. The experiment in a line: Displacement of [3H]RO15-1788 from benzodiazepine receptor in recombinant bovine brain membranes expressed in HEK293 cells at 0.2 nM after 1 hr relative to control. The settings on record: Membrane. The class given is cell-based.
In assay [16] the target is Gamma-aminobutyric acid receptor subunit alpha-1 (Rattus norvegicus, UniProt P62813). The experiment in a line: Displacement of [3H]RO15-1788 from recombinant rat GABAalpha1 receptor expressed in HEK293 cells after 1 hr. The class given is cell-based.
Gamma-aminobutyric acid receptor subunit alpha-1, sequence (P62813 whole entry): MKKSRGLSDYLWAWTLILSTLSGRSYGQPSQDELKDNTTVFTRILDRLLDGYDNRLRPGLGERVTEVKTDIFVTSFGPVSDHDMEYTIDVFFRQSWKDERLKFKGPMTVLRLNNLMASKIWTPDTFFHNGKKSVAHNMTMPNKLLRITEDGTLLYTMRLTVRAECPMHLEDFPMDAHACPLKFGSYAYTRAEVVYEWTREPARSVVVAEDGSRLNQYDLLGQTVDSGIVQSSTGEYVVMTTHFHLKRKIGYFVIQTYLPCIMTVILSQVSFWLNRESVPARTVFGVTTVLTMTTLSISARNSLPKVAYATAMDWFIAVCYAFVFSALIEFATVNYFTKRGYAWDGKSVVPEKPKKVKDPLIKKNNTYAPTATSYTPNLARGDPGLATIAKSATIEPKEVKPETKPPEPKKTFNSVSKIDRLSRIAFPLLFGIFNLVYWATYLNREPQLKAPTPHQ
Assay [17] has as its target Gamma-aminobutyric acid receptor subunit alpha-5 (Rattus norvegicus, UniProt P19969). As to the kind of experiment: Displacement of [3H]RO15-1788 from recombinant rat GABAalpha5 receptor expressed in HEK293 cells after 1 hr. The class given is cell-based.
The species entered for assay [18] is Sus scrofa. The experiment in a line: Inhibition of PDE in pig blood assessed as suppression of ADP-induced platelet aggregation at 25 ug/ml by turbidimetric method relative to control.

SMILES strings stand for the structures. In brackets after ≈: the same amount, converted by molar mass.

Estrogen receptor beta (Homo sapiens), sequence (Q92731 whole entry): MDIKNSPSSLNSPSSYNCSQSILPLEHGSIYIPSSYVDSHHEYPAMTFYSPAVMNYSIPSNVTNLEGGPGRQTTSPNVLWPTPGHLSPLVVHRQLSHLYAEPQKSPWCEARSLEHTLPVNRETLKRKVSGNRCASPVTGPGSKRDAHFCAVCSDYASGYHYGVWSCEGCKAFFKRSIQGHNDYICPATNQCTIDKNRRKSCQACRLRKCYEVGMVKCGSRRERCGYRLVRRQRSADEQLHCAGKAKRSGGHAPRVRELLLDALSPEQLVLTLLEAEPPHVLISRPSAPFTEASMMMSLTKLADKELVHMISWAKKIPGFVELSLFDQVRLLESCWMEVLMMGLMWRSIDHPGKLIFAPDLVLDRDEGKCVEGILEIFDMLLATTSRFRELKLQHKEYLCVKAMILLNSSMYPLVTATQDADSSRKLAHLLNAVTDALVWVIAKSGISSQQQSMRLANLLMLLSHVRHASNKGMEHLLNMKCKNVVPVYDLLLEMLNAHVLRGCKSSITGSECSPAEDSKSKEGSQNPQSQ
Gamma-aminobutyric acid receptor subunit alpha-5, sequence (P19969 whole entry): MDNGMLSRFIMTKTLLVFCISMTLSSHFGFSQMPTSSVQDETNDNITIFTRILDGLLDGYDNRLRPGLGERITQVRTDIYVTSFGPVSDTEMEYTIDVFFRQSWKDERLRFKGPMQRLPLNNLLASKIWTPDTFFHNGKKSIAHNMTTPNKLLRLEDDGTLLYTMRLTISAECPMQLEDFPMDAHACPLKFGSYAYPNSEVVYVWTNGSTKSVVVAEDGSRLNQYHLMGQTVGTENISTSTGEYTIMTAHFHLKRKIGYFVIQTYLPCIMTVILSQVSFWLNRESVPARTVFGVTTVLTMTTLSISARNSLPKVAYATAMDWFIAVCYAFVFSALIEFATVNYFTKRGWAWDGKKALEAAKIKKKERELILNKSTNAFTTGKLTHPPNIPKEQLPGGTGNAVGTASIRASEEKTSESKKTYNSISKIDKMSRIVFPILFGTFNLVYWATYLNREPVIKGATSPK

Take `Nc1nn2c(-c3cccs3)cc(-c3cccs3)nc2c1/N=N/c1ccccc1`: the zone of inhibition at 30 µg/mL is 9.3 mm in the assay on Pseudomonas aeruginosa; 8.2 mm in [1]; 11.3 mm in the assay with Geotrichum candidum; 15.3 mm in the assay with Staphylococcus aureus; 14.9 mm in the assay on Escherichia coli; 15.2 mm with Aspergillus fumigatus. Further, the zone of inhibition at 30 µg/mL in the assay with Bacillus subtilis came to 17.9 mm; with Candida albicans it was 10 mm.

`Oc1ccc(-c2c(-c3ccccc3)nn3cccnc23)cc1`: the relative binding affinity (RBA) was determined as 0.023 in [2] and 0.007 in assay [3].

For the compound `CCOC(=O)c1cnc2c(Br)cnn2c1O`, the Ratio IC50 in the assay filed under Oryctolagus cuniculus [4] was found to be 0.5; in the assay listed under Oryctolagus cuniculus [6] it was 1. The inhibition (usually how much of the control response was suppressed) in the assay listed under Sus scrofa [5] was 34%.

In the case of `Oc1ccc(-c2nn3cccnc3c2-c2ccccc2)cc1`, the relative binding affinity (RBA) worked out at 0.05 in [2] and 0.01 in [3].

For the compound `Cc1cc(N/N=C/c2ccc([N+](=O)[O-])o2)n2nccc2n1`, the Activity in the assay with Trypanosoma cruzi [7] came out at 63.4%. Moreover, the MLC in the assay on Trypanosoma cruzi [8] turned out to be 10 µg/mL (≈ 34.9 µM). Also, in the assay with Trypanosoma cruzi [8] (Trypanosoma cruzi), the MIC (as a rule, the lowest concentration that inhibits growth of the organism) amounted to 10 µg/mL (≈ 34.9 µM).

As to `COc1ccc(Cc2nn3c(-c4ccc(OC)cc4)c(C#N)c(N)nc3c2C(=O)Nc2ccc(Cl)cc2)cc1`, in the assay with Ehrlich, the IC50 (as a rule, the concentration that inhibits the measured activity by half) turned out to be 25 µg/mL (≈ 46.4 µM).

`CCC(CC)Nc1cc(C)nc2c(-c3ccc(Cl)cc3C)c(C)nn12`: the Ki (as a rule, a measure of affinity in units of concentration, obtained from inhibition or displacement) in assay [9] was 1.7 nM.

For the compound `Oc1ccc(-c2nn3cccnc3c2-c2ccc(O)cc2)cc1`, the relative binding affinity (RBA) in [2] was 0.1; in [3] it was 0.004.

In turn, `O=c1c(-c2ccsc2)c[nH]c2c(-c3ccsc3)cnn12` yielded a Ki in [10] of 16.3 nM. For the same compound, the Ratio IC50 in the assay listed under Bos taurus [11] stood at 1.3. This compound showed an inhibition in the assay listed under Bos taurus [12] of 100%.

With `Clc1ccccc1C(c1ccccc1)(c1ccccc1)n1ccnc1` [CLOTRIMAZOLE], the zone of inhibition at 30 µg/mL in assay [1] amounted to 21.4 mm; in the assay on Geotrichum candidum, 23.2 mm; with Aspergillus fumigatus it was 26.3 mm; in the assay with Candida albicans, 20.8 mm.

As to `O=c1c(-c2ccsc2)c[nH]c2c(-c3ccccn3)cnn12`, the inhibitory constant (Ki) in [13] was determined as 927 nM; in assay [14], 3.9 nM; in assay [16], 7 nM; in assay [17], 740 nM. In addition, the inhibition in the assay listed under Bos taurus [15] was 98%.

In the case of `CCOC(=O)c1cnc2c(Br)cnn2c1N`, the inhibition in the assay filed under Sus scrofa [18] was 67%.

`CN[C@@H]1[C@H](O[C@H]2[C@H](O[C@H]3[C@H](O)[C@@H](O)[C@H](N=C(N)N)[C@@H](O)[C@@H]3N=C(N)N)O[C@@H](C)[C@]2(O)C=O)O[C@@H](CO)[C@H](O)[C@H]1O` [STREPTOMYCIN]: the zone of inhibition at 30 µg/mL came to 25.2 mm in the assay on Pseudomonas aeruginosa, 28.1 mm with Staphylococcus aureus, 29.7 mm with Escherichia coli and 29.7 mm in the assay on Bacillus subtilis.
